Consider 2 molecules from US20090149494A1, “THERAPEUTIC USE OF IMIDAZO[1,2-a]PYRIDINE-2-CARBOXAMIDE DERIVATIVES” (SANOFI-AVENTIS, priority 2006, published 2009).

For assay [1], the target named is T1, murine Nurr1 receptor (Mus musculus, UniProt Q06219).
T1 construct: endogenously expressing the murine Nurr1 receptor; host or cells: Neuro-2A (N2A) mouse neuroblastoma cells stably transfected with 8NBRE-luciferase
In words: In vitro activity on N2A cells (NBRE-luciferase reporter). Particulars: N2A-8NBRE-luciferase cells, 24 hours incubation. The assay is classed as cell-based. The method, then:
The tests consisted in evaluating the in vitro activity of the compounds of the invention on a cell line (N2A) endogenously expressing the murine Nurr1 receptor and stably transfected with the NOT binding response element (NBRE) coupled to the luciferase reporter gene. The EC50 values are between 0.01 and 1000 nM. The tests were performed according to the procedure described hereinbelow.
The cell line Neuro-2A is obtained from a standard commercial source (ATCC). The clone Neuro-2A was obtained from a spontaneous tumor originating from a strain of albino mice A by R. J Klebe et al. This line Neuro-2A is then stably transfected with 8NBRE-luciferase. The N2A-8NBRE cells are cultured to the point of confluence in 75 cm^2 culture flasks containing DMEM supplemented with 10% fetal calf serum, 4.5 g/L of glucose and 0.4 mg/ml of geneticin. After culturing for one week, the cells are recovered with 0.25% trypsin for 30 seconds and then resuspended in DMEM without phenol red, containing 4.5 g/L of glucose and 10% Hyclone defatted serum, and placed in white, transparent-based 96-well plates. The cells are deposited at a rate of 60 000 per well in 75 μL for 24 hours before adding the products. The products are applied in 25 μL and incubated for a further 24 hours. […] The plates are then measured in a microplate luminescence counter, after having been sealed with an adhesive film. […]
(In general: Reporter assays use an easily measured gene product as a stand-in for the process of interest.)

The subject of assay [2] is human NOT receptor. In words: Binding to the human NOT receptor by SPR (Biacore). Particulars: immobilized GST-NOT (NOT-FL) and His-Thr-NOT 329-598, 3.75 to 0.1 μM, 4° C. The method, then: The direct binding between compounds of the invention and the human NOT receptor was evaluated using the SPR (surface plasmon resonance) technique. In this test, the protein is immobilized covalently on the matrix and the test molecule is injected into the chamber containing the sensor chip. The signal is directly proportional to the amount of product bound to the protein. The binding tests were performed in a Biacore S51 machine (Biacore Inc., Piscataway N.J.). The entire GST-NOT protein (NOT-FL) was supplied by Invitrogen (PV3265). The domain for binding to the NOT ligand (His-Thr-NOT 329-598) was expressed and purified as described in Nature 423, 555-560. The two proteins, diluted to a concentration of 20 μg/ml in pH 5.0 acetate buffer containing 5 mM of DTT, were immobilized on a surface of carboxymethyl 5′ dextran (CM5 sensor chip, Biacore Inc.) via amine coupling according to the protocol recommended by Biacore, eluting with an HBS-N buffer (10 mM HEPES, 0.15 M NaCl, 3 mM EDTA, pH 7.4). Approximately 10 000-15 000 resonance units (R^U) of the proteins are captured on the surface of the sensor chip CM5. […] The dissociation was recorded for 5 minutes without any other surface regeneration procedure. […]

T1 sequence (Q06219 whole entry): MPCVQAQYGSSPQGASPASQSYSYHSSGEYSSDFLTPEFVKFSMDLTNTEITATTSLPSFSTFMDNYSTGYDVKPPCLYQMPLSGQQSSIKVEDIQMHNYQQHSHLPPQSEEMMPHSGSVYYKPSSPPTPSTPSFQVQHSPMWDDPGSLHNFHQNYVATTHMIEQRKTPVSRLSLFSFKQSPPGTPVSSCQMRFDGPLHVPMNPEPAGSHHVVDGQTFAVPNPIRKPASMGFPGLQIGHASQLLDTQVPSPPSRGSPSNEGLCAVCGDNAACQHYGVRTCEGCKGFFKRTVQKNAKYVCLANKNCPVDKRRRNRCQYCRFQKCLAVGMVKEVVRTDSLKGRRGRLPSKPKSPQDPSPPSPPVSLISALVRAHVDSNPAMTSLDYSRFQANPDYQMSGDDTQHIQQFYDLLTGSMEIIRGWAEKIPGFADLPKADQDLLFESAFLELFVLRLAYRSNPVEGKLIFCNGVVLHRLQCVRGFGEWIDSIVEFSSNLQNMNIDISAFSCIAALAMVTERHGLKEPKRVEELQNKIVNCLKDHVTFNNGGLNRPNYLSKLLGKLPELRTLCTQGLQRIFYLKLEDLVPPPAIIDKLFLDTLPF

Regarding `O=C(Nc1ccccc1)c1cn2ccccc2n1` [compound 1], in assay [1], the concentration for a half-maximal effect (EC50) (as a rule, the concentration needed to bring the measured effect to its halfway point) turned out to be 0.0055 µM. For the same molecule, in assay [2], the “affinity (classified by maximum binding level and kinetic parameters of binding)” value was “moderate affinity”.

The molecule `O=C(Nc1ccc(F)cc1)c1cn2cc(Cl)ccc2n1` [compound 2] had an EC50 in assay [1] of 0.017 µM.
